Where a SMILES comes first, the peptide text is derived from it. [ ]: non-standard residue; d: D form. Aib = CC(C)(N)C(=O)O
Legend:
human GLP-1R = human GLP-1R (Homo sapiens, UniProt P43220); test: Peptide-receptor mediated cAMP accumulation (LANCE Ultra cAMP) in CHO-K1 cells transfected with human GLP-1R; format: cell-based; details: hGLP1 pEC50 (cAMP mean (n = 3): 11 point curve starting at 1 nM, Table 3)
human GCGR = human GCGR (Homo sapiens, UniProt P47871); test: Peptide-receptor mediated cAMP accumulation (LANCE Ultra cAMP) in CHO-K1 cells transfected with human GCGR; format: cell-based; details: Table 3
human GCGR, sequence (P47871 26-477): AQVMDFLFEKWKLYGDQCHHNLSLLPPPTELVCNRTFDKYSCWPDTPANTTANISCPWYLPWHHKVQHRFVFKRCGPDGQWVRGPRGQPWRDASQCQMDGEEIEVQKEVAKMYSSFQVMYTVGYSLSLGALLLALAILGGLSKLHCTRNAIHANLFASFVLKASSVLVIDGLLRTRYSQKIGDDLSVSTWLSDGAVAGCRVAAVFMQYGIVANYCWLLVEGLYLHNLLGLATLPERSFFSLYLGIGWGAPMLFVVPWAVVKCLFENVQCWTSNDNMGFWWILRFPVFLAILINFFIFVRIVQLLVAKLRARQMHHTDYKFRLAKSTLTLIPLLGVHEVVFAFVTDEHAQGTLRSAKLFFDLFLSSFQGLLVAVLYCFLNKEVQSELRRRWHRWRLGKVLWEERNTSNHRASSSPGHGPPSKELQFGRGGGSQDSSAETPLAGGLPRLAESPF

human GLP-1R, sequence (P43220 24-463): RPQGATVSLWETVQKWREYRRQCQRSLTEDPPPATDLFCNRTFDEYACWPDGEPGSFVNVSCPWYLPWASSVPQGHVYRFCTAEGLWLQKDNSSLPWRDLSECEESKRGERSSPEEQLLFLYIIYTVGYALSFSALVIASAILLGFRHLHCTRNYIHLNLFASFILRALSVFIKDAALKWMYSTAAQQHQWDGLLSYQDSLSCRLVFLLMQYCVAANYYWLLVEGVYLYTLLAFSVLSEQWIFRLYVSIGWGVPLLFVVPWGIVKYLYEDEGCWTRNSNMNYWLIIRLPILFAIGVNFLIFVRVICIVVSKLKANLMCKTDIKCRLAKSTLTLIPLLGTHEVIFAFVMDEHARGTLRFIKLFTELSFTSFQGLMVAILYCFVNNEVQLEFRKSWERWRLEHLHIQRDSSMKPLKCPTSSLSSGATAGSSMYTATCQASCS

Row | Compound | EC50 (human GLP-1R) [nM] | EC50 (human GCGR) [nM]
1 | CC(C)C[C@H](NC(=O)[C@H](Cc1ccc(O)cc1)NC(=O)[C@H](CCCCN)NC(=O)[C@H](CO)NC(=O)[C@H](Cc1ccc(O)cc1)NC(=O)[C@H](CC(=O)O)NC(=O)[C@H](CO)NC(=O)[C@@H](NC(=O)[C@H](Cc1ccccc1)NC(=O)[C@@H](NC(=O)CNC(=O)[C@H](Cc1c[nH]cn1)NC(=O)[C@H](CO)NC(=O)[C@@H](N)Cc1ccc(O)cc1)[C@@H](C)O)[C@@H](C)O)C(=O)N[C@@H](CC(=O)O)C(=O)NC(C)(C)C(=O)N[C@@H](CCC(=O)O)C(=O)N[C@@H](CCCNC(=N)N)C(=O)N[C@@H](C)C(=O)N[C@@H](CCC(N)=O)C(=O)N[C@@H](CCC(=O)O)C(=O)N[C@@H](Cc1ccccc1)C(=O)N[C@H](C(=O)NC(C)(C)C(=O)N[C@@H](Cc1c[nH]c2ccccc12)C(=O)N[C@@H](CC(C)C)C(=O)N[C@@H](CCC(=O)O)C(=O)N[C@@H](CC(=O)O)C(=O)N[C@@H](CCC(=O)O)C(=O)N1CCC[C@H]1C(=O)N[C@@H](CO)C(=O)N[C@@H](CO)C(=O)NCC(=O)N[C@@H](C)C(=O)N1CCC[C@H]1C(=O)N1CCC[C@H]1C(=O)N1CCC[C@H]1C(=O)N[C@@H](CO)C(=O)O)C(C)C [Compound A17] (H-YSHGTFTSDYSKYLD[Aib]ERAQEFV[Aib]WLEDEPSSGAPPPS-OH) | > 1 | 0.00794
2 | CC(C)C[C@H](NC(=O)[C@H](Cc1c[nH]c2ccccc12)NC(=O)[C@H](CCCCN)NC(=O)[C@H](CO)NC(=O)[C@H](Cc1ccc(O)cc1)NC(=O)[C@H](CC(=O)O)NC(=O)[C@H](CO)NC(=O)[C@@H](NC(=O)[C@H](Cc1ccccc1)NC(=O)[C@@H](NC(=O)CNC(=O)[C@H](Cc1c[nH]cn1)NC(=O)[C@H](CO)NC(=O)[C@@H](N)Cc1ccc(O)cc1)[C@@H](C)O)[C@@H](C)O)C(=O)N[C@@H](CC(=O)O)C(=O)NC(C)(C)C(=O)N[C@@H](CO)C(=O)N[C@@H](CCCNC(=N)N)C(=O)N[C@@H](C)C(=O)N[C@@H](CCC(N)=O)C(=O)N[C@@H](CCC(=O)O)C(=O)N[C@@H](Cc1ccccc1)C(=O)N[C@H](C(=O)NC(C)(C)C(=O)N[C@@H](Cc1c[nH]c2ccccc12)C(=O)N[C@@H](CC(C)C)C(=O)N[C@@H](CCC(=O)O)C(=O)N[C@@H](CC(=O)O)C(=O)N[C@@H](CCC(=O)O)C(=O)N1CCC[C@H]1C(=O)N[C@@H](CO)C(=O)N[C@@H](CO)C(=O)NCC(=O)N[C@@H](C)C(=O)N1CCC[C@H]1C(=O)N1CCC[C@H]1C(=O)N1CCC[C@H]1C(=O)N[C@@H](CO)C(=O)O)C(C)C [Compound A19] (H-YSHGTFTSDYSKWLD[Aib]SRAQEFV[Aib]WLEDEPSSGAPPPS-OH; N-terminus assumed) | > 1 | 0.01
3 | CC(C)C[C@H](NC(=O)[C@H](Cc1ccc(O)cc1)NC(=O)[C@H](CCCCN)NC(=O)[C@H](CO)NC(=O)[C@H](Cc1ccc(O)cc1)NC(=O)[C@H](CC(=O)O)NC(=O)[C@H](CO)NC(=O)[C@@H](NC(=O)[C@H](Cc1ccccc1)NC(=O)[C@@H](NC(=O)CNC(=O)[C@H](Cc1c[nH]cn1)NC(=O)[C@H](CO)NC(=O)[C@@H](N)Cc1ccc(O)cc1)[C@@H](C)O)[C@@H](C)O)C(=O)N[C@@H](CC(=O)O)C(=O)NC(C)(C)C(=O)N[C@@H](CCCCN)C(=O)N[C@@H](CCCNC(=N)N)C(=O)N[C@@H](C)C(=O)N[C@@H](CCC(N)=O)C(=O)N[C@@H](CCC(=O)O)C(=O)N[C@@H](Cc1ccccc1)C(=O)N[C@H](C(=O)NC(C)(C)C(=O)N[C@@H](Cc1c[nH]c2ccccc12)C(=O)N[C@@H](CC(C)C)C(=O)N[C@@H](CCC(=O)O)C(=O)N[C@@H](CC(=O)O)C(=O)N[C@@H](CCC(=O)O)C(=O)N1CCC[C@H]1C(=O)N[C@@H](CO)C(=O)N[C@@H](CO)C(=O)NCC(=O)N[C@@H](CCC(=O)O)C(=O)N1CCC[C@H]1C(=O)N1CCC[C@H]1C(=O)N1CCC[C@H]1C(=O)N[C@@H](CO)C(=O)O)C(C)C [Compound A21] (H-YSHGTFTSDYSKYLD[Aib]KRAQEFV[Aib]WLEDEPSSGEPPPS-OH; N-terminus assumed) | > 1 | 0.00794
4 | CC(C)C[C@H](NC(=O)[C@H](Cc1ccc(O)cc1)NC(=O)[C@H](CCCCN)NC(=O)[C@H](CO)NC(=O)[C@H](Cc1ccc(O)cc1)NC(=O)[C@H](CC(=O)O)NC(=O)[C@H](CO)NC(=O)[C@@H](NC(=O)[C@H](Cc1ccccc1)NC(=O)[C@@H](NC(=O)CNC(=O)[C@H](Cc1c[nH]cn1)NC(=O)[C@H](CO)NC(=O)[C@@H](N)Cc1ccc(O)cc1)[C@@H](C)O)[C@@H](C)O)C(=O)N[C@@H](CC(=O)O)C(=O)NC(C)(C)C(=O)N[C@@H](CCCCN)C(=O)N[C@@H](CCCNC(=N)N)C(=O)N[C@@H](C)C(=O)N[C@@H](CCC(N)=O)C(=O)N[C@@H](CCC(=O)O)C(=O)N[C@@H](Cc1ccccc1)C(=O)N[C@H](C(=O)NC(C)(C)C(=O)N[C@@H](Cc1c[nH]c2ccccc12)C(=O)N[C@@H](CC(C)C)C(=O)N[C@@H](CCC(=O)O)C(=O)N[C@@H](CC(=O)O)C(=O)N[C@@H](CCC(=O)O)C(=O)N1CCC[C@H]1C(=O)N[C@@H](CO)C(=O)N[C@@H](CO)C(=O)NCC(=O)N[C@@H](CO)C(=O)N1CCC[C@H]1C(=O)N1CCC[C@H]1C(=O)N1CCC[C@H]1C(=O)N[C@@H](CO)C(=O)O)C(C)C [Compound A22] (H-YSHGTFTSDYSKYLD[Aib]KRAQEFV[Aib]WLEDEPSSGSPPPS-OH; N-terminus assumed) | > 1 | 0.01
5 | CC(C)C[C@H](NC(=O)[C@H](Cc1ccc(O)cc1)NC(=O)[C@H](CCCCN)NC(=O)[C@H](CO)NC(=O)[C@H](Cc1ccc(O)cc1)NC(=O)[C@H](CC(=O)O)NC(=O)[C@H](CO)NC(=O)[C@@H](NC(=O)[C@H](Cc1ccccc1)NC(=O)[C@@H](NC(=O)CNC(=O)[C@H](Cc1c[nH]cn1)NC(=O)[C@H](CO)NC(=O)[C@@H](N)Cc1ccc(O)cc1)[C@@H](C)O)[C@@H](C)O)C(=O)N[C@@H](CC(=O)O)C(=O)NC(C)(C)C(=O)N[C@@H](CCCCN)C(=O)N[C@@H](CCCNC(=N)N)C(=O)N[C@@H](C)C(=O)N[C@@H](CCC(N)=O)C(=O)N[C@@H](CCC(=O)O)C(=O)N[C@@H](Cc1ccccc1)C(=O)N[C@H](C(=O)NC(C)(C)C(=O)N[C@@H](Cc1c[nH]c2ccccc12)C(=O)N[C@@H](CC(C)C)C(=O)N[C@@H](CCC(=O)O)C(=O)N[C@@H](CC(=O)O)C(=O)N[C@@H](CCC(=O)O)C(=O)N1CCC[C@H]1C(=O)N[C@@H](CO)C(=O)N[C@@H](CO)C(=O)N[C@@H](CCCCN)C(=O)N[C@@H](C)C(=O)N1CCC[C@H]1C(=O)N1CCC[C@H]1C(=O)N1CCC[C@H]1C(=O)N[C@@H](CO)C(=O)O)C(C)C [Compound A23] (H-YSHGTFTSDYSKYLD[Aib]KRAQEFV[Aib]WLEDEPSSKAPPPS-OH; N-terminus assumed) | > 1 | 0.00631
6 | CC(C)C[C@H](NC(=O)[C@H](Cc1ccc(O)cc1)NC(=O)[C@H](CCCCN)NC(=O)[C@H](CO)NC(=O)[C@H](Cc1ccc(O)cc1)NC(=O)[C@H](CC(=O)O)NC(=O)[C@H](CO)NC(=O)[C@@H](NC(=O)[C@H](Cc1ccccc1)NC(=O)[C@@H](NC(=O)CNC(=O)[C@H](Cc1c[nH]cn1)NC(=O)[C@H](CO)NC(=O)[C@@H](N)Cc1ccc(O)cc1)[C@@H](C)O)[C@@H](C)O)C(=O)N[C@@H](CC(=O)O)C(=O)NC(C)(C)C(=O)N[C@@H](CCCCN)C(=O)N[C@@H](CCCNC(=N)N)C(=O)N[C@@H](C)C(=O)N[C@@H](CCC(N)=O)C(=O)N[C@@H](CCC(=O)O)C(=O)N[C@@H](Cc1ccccc1)C(=O)N[C@H](C(=O)NC(C)(C)C(=O)N[C@@H](Cc1c[nH]c2ccccc12)C(=O)N[C@@H](CC(C)C)C(=O)N[C@@H](CCC(=O)O)C(=O)N[C@@H](CC(=O)O)C(=O)N[C@@H](CCC(=O)O)C(=O)N1CCC[C@H]1C(=O)N[C@@H](CO)C(=O)N[C@@H](CO)C(=O)NCC(=O)N[C@@H](C)C(=O)N1CCC[C@H]1C(=O)N1CCC[C@H]1C(=O)N1CCC[C@H]1C(=O)N[C@@H](CO)C(=O)N[C@@H](CO)C(=O)O)C(C)C [Compound A25] (H-YSHGTFTSDYSKYLD[Aib]KRAQEFV[Aib]WLEDEPSSGAPPPSS-OH; N-terminus assumed) | > 1 | 0.00501
7 | CC(C)C[C@H](NC(=O)[C@H](Cc1ccc(O)cc1)NC(=O)[C@H](CCCCN)NC(=O)[C@H](CO)NC(=O)[C@H](Cc1ccc(O)cc1)NC(=O)[C@H](CC(=O)O)NC(=O)[C@H](CO)NC(=O)[C@@H](NC(=O)[C@H](Cc1ccccc1)NC(=O)[C@@H](NC(=O)CNC(=O)[C@H](Cc1c[nH]cn1)NC(=O)[C@H](CO)NC(=O)[C@@H](N)Cc1ccc(O)cc1)[C@@H](C)O)[C@@H](C)O)C(=O)N[C@@H](CC(=O)O)C(=O)NC(C)(C)C(=O)N[C@@H](CCCCN)C(=O)N[C@@H](CCCNC(=N)N)C(=O)N[C@@H](C)C(=O)N[C@@H](CCC(N)=O)C(=O)N[C@@H](CCC(=O)O)C(=O)N[C@@H](Cc1ccccc1)C(=O)N[C@H](C(=O)NC(C)(C)C(=O)N[C@@H](Cc1c[nH]c2ccccc12)C(=O)N[C@@H](CC(C)C)C(=O)N[C@@H](CCC(=O)O)C(=O)N[C@@H](CC(=O)O)C(=O)N[C@@H](CCC(=O)O)C(=O)N1CCC[C@H]1C(=O)N[C@@H](CO)C(=O)N[C@@H](CO)C(=O)NCC(=O)N[C@@H](C)C(=O)N1CCC[C@H]1C(=O)N1CCC[C@H]1C(=O)N1CCC[C@H]1C(=O)N[C@@H](CO)C(=O)N[C@@H](CCC(=O)O)C(=O)O)C(C)C [Compound A26] (H-YSHGTFTSDYSKYLD[Aib]KRAQEFV[Aib]WLEDEPSSGAPPPSE-OH; N-terminus assumed) | > 1 | 0.00794

— US20240239861A1, “GLUCAGON-RECEPTOR SELECTIVE POLYPEPTIDES AND METHODS OF USE THEREOF” (i2O Therapeutics, Inc., priority 2016, published 2024)
